Laboratory results taken from patent publication US20100298141A1, “SUBSTITUTED PYRIDINE N-OXIDE HERBICIDES” (E. I. DU PONT DE NEMOURS AND COMPANY, priority 2007, published 2010).

Legend:
barnyardgrass = assay: Test A pre-/postemergence greenhouse test; type: in vivo, Echinochloa crus-galli; conditions: for Plant response rating, Barnyardgrass: 0 to 100 scale where 0 is no effect and 100 is complete control; for Barnyardgrass plant response rating: 0 to 100 scale
Method in brief: (§1)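 Planting was into mixed loam soil and sand; preemergence treatment followed as a directed soil spray. Concurrently, emerged plants (one- to two-leaf, 2–10 cm) received postemergence applications of identically formulated compound (non-phytotoxic solvent, surfactant). After approximately ten days under greenhouse conditions, injury was judged by eye against untreated plants.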

morningglory [1] = assay: Test A pre-/postemergence greenhouse test; type: in vivo, Ipomoea spp.; conditions: for Plant response rating, Morningglory: 0 to 100 scale where 0 is no effect and 100 is complete control; for Morningglory plant response rating: 0 to 100 scale
Method in brief: as §1

blackgrass = assay: Test C pre-/postemergence test; type: in vivo, Alopecurus myosuroides
Method in brief: (§2)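 Compounds in a non-phytotoxic solvent with surfactant applied preemergence to seeded pots and, at the same time, postemergence to plants 2–18 cm tall (1- to 4-leaf stage). Paddy tests: pots flooded to 3 cm, compound applied into the water, depth held throughout.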

green foxtail = assay: Test C pre-/postemergence test; type: in vivo, Setaria viridis
Method in brief: as §2

Italian ryegrass = assay: Test C pre-/postemergence test; type: in vivo, Lolium multiflorum
Method in brief: as §2

wheat = assay: Test C pre-/postemergence test; type: in vivo, Triticum aestivum
Method in brief: as §2

cocklebur = assay: Test C pre-/postemergence test; type: in vivo, Xanthium strumarium
Method in brief: as §2

corn = assay: Test C pre-/postemergence test; type: in vivo, Zea mays
Method in brief: as §2

crabgrass = assay: Test C pre-/postemergence test; type: in vivo, Digitaria sanguinalis
Method in brief: as §2

woolly cupgrass = assay: Test C pre-/postemergence test; type: in vivo, Eriochloa villosa
Method in brief: as §2

kochia = assay: Test C pre-/postemergence test; type: in vivo, Kochia scoparia
Method in brief: as §2

morningglory [2] = assay: Test C pre-/postemergence test; type: in vivo, Ipomoea coccinea
Method in brief: as §2

yellow nutsedge = assay: Test C pre-/postemergence test; type: in vivo, Cyperus esculentus
Method in brief: as §2

pigweed = assay: Test C pre-/postemergence test; type: in vivo, Amaranthus retroflexus
Method in brief: as §2

soybean = assay: Test C pre-/postemergence test; type: in vivo, Glycine max
Method in brief: as §2

[3] = tested on: common (oilseed) sunflower; assay: Test C pre-/postemergence test; type: in vivo, Helianthus annuus; conditions: for Plant response rating, Sunflower: 31 g ai/ha, scale 0 to 100 (0 no effect, 100 complete control)
Method in brief: as §2

umbrella sedge = assay: Test C flooded paddy test; type: in vivo, Cyperus difformis; conditions: Flood
Method in brief: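 Ratings were visual and made relative to untreated controls after 13 to 15 greenhouse days.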

[4] = Postemergence, 500 g ai/ha, 0 is no effect, 100 is complete control
[5] = Preemergence, 125 g ai/ha, 0 no effect, 100 complete control
[6] = 62 g ai/ha, Preemergence, scale 0 to 100
[7] = 125 g ai/ha, preemergence, scale 0 (no effect) to 100 (complete control)
[8] = Postemergence, 62 g ai/ha, scale 0 to 100, 0 no effect, 100 complete control
[9] = Postemergence, 125 g ai/ha, scale 0 to 100, 0 no effect, 100 complete control
[10] = Postemergence, 250 g ai/ha, scale 0 to 100, 0 no effect, 100 complete control
[11] = Preemergence, 31 g ai/ha, scale 0 to 100 (0 no effect, 100 complete control)
[12] = preemergence, 250 g ai/ha, scale 0 (no effect) to 100 (complete control)
[13] = 250 g ai/ha, scale 0 to 100, 0 no effect, 100 complete control, 13 to 15 days
[14] = Postemergence, 125 g ai/ha, 0 is no effect, 100 is complete control
[15] = preemergence, 125 g ai/ha, scale 0 (no effect) to 100 (complete control)

[O-][n+]1cc(Cl)ccc1[S+]([O-])Cc1c(C(F)(F)F)nn(CC(F)(F)F)c1Cl (centres unmarked) [Compound 47]
30: Plant response rating, Crabgrass, Large (crabgrass; [10]) | Nutsedge, Yellow plant response rating (yellow nutsedge; [6])
90: Barnyardgrass plant response rating (barnyardgrass; [4]) | Barnyardgrass plant response rating (barnyardgrass; [5]) | Morningglory plant response rating (morningglory [1]; [4]) | Foxtail, Green plant response rating (green foxtail; [7]) | Plant response rating, Cupgrass, Woolly (woolly cupgrass; [11])
70: Plant response rating, Blackgrass (blackgrass; [10]) | Plant response rating, Foxtail, Green (green foxtail; [11]) | Plant response rating, Pigweed (pigweed; [11])
60: Plant response rating, Morningglory (morningglory [1]; Postemergence, 125 g ai/ha) | Morningglory plant response rating (morningglory [1]; [5]) | Wheat plant response rating (wheat; [7]) | Plant response rating, Corn (corn; [10]) | Plant response rating, Morningglory (morningglory [2]; [10]) | Plant response rating, Nutsedge, Yellow (yellow nutsedge; [10]) | Soybean plant response rating (soybean; [7])
100: Plant response rating, Barnyardgrass (barnyardgrass; Preemergence, 500 g ai/ha) | Blackgrass plant response rating (blackgrass; [7]) | Blackgrass plant response rating (blackgrass; [12]) | Foxtail, Green plant response rating (green foxtail; [12]) | Crabgrass, Large plant response rating (crabgrass; [6]) | Crabgrass, Large plant response rating (crabgrass; [7]) | Crabgrass, Large plant response rating (crabgrass; [12]) | Cupgrass, Woolly plant response rating (woolly cupgrass; [6]) | Cupgrass, Woolly plant response rating (woolly cupgrass; [7]) | Cupgrass, Woolly plant response rating (woolly cupgrass; [12]) | Kochia plant response rating (kochia; [7]) | Kochia plant response rating (kochia; [12]) | Morningglory plant response rating (morningglory [2]; [6]) | Morningglory plant response rating (morningglory [2]; [7]) | Plant response rating, Morningglory (morningglory [2]; [11]) | Morningglory plant response rating (morningglory [2]; [12]) | Nutsedge, Yellow plant response rating (yellow nutsedge; [12]) | Pigweed plant response rating (pigweed; [6]) | Pigweed plant response rating (pigweed; [7]) | Pigweed plant response rating (pigweed; [12]) | Plant response rating, Sedge, Umbrella (umbrella sedge; [13])
0: Plant response rating (0 to 100), Blackgrass (blackgrass; Postemergence, 31 g ai/ha) | Plant response rating (0 to 100), Foxtail, Green (green foxtail; Postemergence, 31 g ai/ha) | Plant response rating, Foxtail, Green (green foxtail; [8]) | Plant response rating (0 to 100), Ryegrass, Italian (Italian ryegrass; Postemergence, 31 g ai/ha) | Plant response rating (0 to 100), Ryegrass, Italian (Italian ryegrass; Postemergence, 62 g ai/ha) | Plant response rating, Ryegrass, Italian (Italian ryegrass; [9]) | Plant response rating, Ryegrass, Italian (Italian ryegrass; [11]) | Plant response rating (0 to 100), Wheat (wheat; Postemergence, 31 g ai/ha) | Plant response rating (0 to 100), Wheat (wheat; Postemergence, 62 g ai/ha) | Plant response rating, Wheat (wheat; [11]) | Cocklebur plant response rating (cocklebur; [6]) | Cocklebur plant response rating (cocklebur; [7]) | Plant response rating (0 to 100), Cocklebur (cocklebur; Postemergence, 31 g ai/ha) | Plant response rating, Cocklebur (cocklebur; [8]) | Plant response rating, Cocklebur (cocklebur; [9]) | Plant response rating, Cocklebur (cocklebur; [10]) | Plant response rating, Cocklebur (cocklebur; [11]) | Cocklebur plant response rating (cocklebur; [12]) | Plant response rating (0 to 100), Corn (corn; Postemergence, 31 g ai/ha) | Plant response rating, Corn (corn; [8]) | Plant response rating, Corn (corn; [9]) | Plant response rating (0 to 100), Crabgrass, Large (crabgrass; Postemergence, 31 g ai/ha) | Plant response rating, Crabgrass, Large (crabgrass; [8]) | Plant response rating, Crabgrass, Large (crabgrass; [9]) | Plant response rating (0 to 100), Cupgrass, Woolly (woolly cupgrass; Postemergence, 31 g ai/ha) | Plant response rating, Cupgrass, Woolly (woolly cupgrass; [8]) | Plant response rating, Cupgrass, Woolly (woolly cupgrass; [9]) | Kochia plant response rating (kochia; [6]) | Plant response rating (0 to 100), Kochia (kochia; Postemergence, 31 g ai/ha) | Plant response rating, Kochia (kochia; [8]) | Plant response rating, Kochia (kochia; [9]) | Plant response rating, Kochia (kochia; [10]) | Plant response rating, Kochia (kochia; [11]) | Plant response rating (0 to 100), Morningglory (morningglory [2]; Postemergence, 31 g ai/ha) | Plant response rating, Morningglory (morningglory [2]; [8]) | Plant response rating, Morningglory (morningglory [2]; [9]) | Plant response rating (0 to 100), Nutsedge, Yellow (yellow nutsedge; Postemergence, 31 g ai/ha) | Plant response rating, Nutsedge, Yellow (yellow nutsedge; [8]) | Plant response rating, Nutsedge, Yellow (yellow nutsedge; [9]) | Plant response rating, Nutsedge, Yellow (yellow nutsedge; [11]) | Plant response rating (0 to 100), Pigweed (pigweed; Postemergence, 31 g ai/ha) | Plant response rating (0 to 100), Pigweed (pigweed; Postemergence, 62 g ai/ha) | Plant response rating, Pigweed (pigweed; [9]) | Plant response rating, Soybean (soybean; [11]) | Sunflower plant response rating [3, 6] | Sunflower plant response rating [3, 7] | Plant response rating, Sunflower ([3]; Preemergence) | Sunflower plant response rating [3, 12]
80: Plant response rating, Barnyardgrass (barnyardgrass; Postemergence, 125 g ai/ha) | Plant response rating, Morningglory (morningglory [1]; Preemergence, 500 g ai/ha) | Plant response rating, Foxtail, Green (green foxtail; [10]) | Soybean plant response rating (soybean; [12])
40: Plant response rating, Blackgrass (blackgrass; [9]) | Plant response rating, Ryegrass, Italian (Italian ryegrass; [10]) | Nutsedge, Yellow plant response rating (yellow nutsedge; [7])
45: Plant response rating, Corn (corn; [11]) | Plant response rating, Pigweed (pigweed; [10])
98: Corn plant response rating (corn; [7]) | Corn plant response rating (corn; [12]) | Plant response rating, Crabgrass, Large (crabgrass; [11])
15: Plant response rating (0 to 100), Soybean (soybean; Postemergence, 62 g ai/ha)
50: Blackgrass plant response rating (blackgrass; [6]) | Plant response rating, Blackgrass (blackgrass; [11]) | Ryegrass, Italian plant response rating (Italian ryegrass; [7]) | Plant response rating, Wheat (wheat; [10]) | Corn plant response rating (corn; [6]) | Plant response rating, Cupgrass, Woolly (woolly cupgrass; [10]) | Plant response rating, Soybean (soybean; [10])
85: Foxtail, Green plant response rating (green foxtail; [6]) | Ryegrass, Italian plant response rating (Italian ryegrass; [12]) | Wheat plant response rating (wheat; [12])
5: Plant response rating, Foxtail, Green (green foxtail; [9]) | Plant response rating (0 to 100), Soybean (soybean; Postemergence, 31 g ai/ha)
10: Wheat plant response rating (wheat; [6]) | Plant response rating, Wheat (wheat; [9])
20: Plant response rating, Blackgrass (blackgrass; [8]) | Ryegrass, Italian plant response rating (Italian ryegrass; [6]) | Plant response rating, Soybean (soybean; [9])

Cn1nc(C(F)(F)F)c(CS(=O)(=O)c2cc(C(C)(C)C)cc[n+]2[O-])c1OC(F)F [Compound 25]
80: Plant response rating, Morningglory (morningglory [1]; Preemergence, 500 g ai/ha) | Plant response rating, Foxtail, Green (green foxtail; [11]) | Nutsedge, Yellow plant response rating (yellow nutsedge; [6]) | Plant response rating, Sedge, Umbrella (umbrella sedge; 62 g ai/ha, scale 0 to 100, 0 no effect, 100 complete control, 13 to 15 days) | Plant response rating, Sedge, Umbrella (umbrella sedge; 125 g ai/ha, scale 0 to 100, 0 no effect, 100 complete control, 13 to 15 days)
20: Wheat plant response rating (wheat; [6]) | Corn plant response rating (corn; [6]) | Soybean plant response rating (soybean; [6])
60: Morningglory plant response rating (morningglory [1]; [4]) | Plant response rating (0 to 100), Corn (corn; Preemergence, 250 g ai/ha) | Corn plant response rating (corn; [15]) | Cupgrass, Woolly plant response rating (woolly cupgrass; [6])
100: Plant response rating, Barnyardgrass (barnyardgrass; Preemergence, 500 g ai/ha) | Plant response rating (0 to 100), Foxtail, Green (green foxtail; Preemergence, 250 g ai/ha) | Crabgrass, Large plant response rating (crabgrass; [6]) | Plant response rating, Crabgrass, Large (crabgrass; [11]) | Plant response rating (0 to 100), Crabgrass, Large (crabgrass; Preemergence, 250 g ai/ha) | Plant response rating (0 to 100), Cupgrass, Woolly (woolly cupgrass; Preemergence, 250 g ai/ha) | Pigweed plant response rating (pigweed; [6]) | Plant response rating, Pigweed (pigweed; [11])
98: Foxtail, Green plant response rating (green foxtail; [6])
40: Barnyardgrass plant response rating (barnyardgrass; [14]) | Plant response rating, Cupgrass, Woolly (woolly cupgrass; [11])
50: Barnyardgrass plant response rating (barnyardgrass; [4]) | Morningglory plant response rating (morningglory [2]; [6])
90: Barnyardgrass plant response rating (barnyardgrass; [5])
0: Morningglory plant response rating (morningglory [1]; [5]) | Blackgrass plant response rating (blackgrass; [6]) | Plant response rating, Blackgrass (blackgrass; [11]) | Plant response rating (0 to 100), Blackgrass (blackgrass; Preemergence, 250 g ai/ha) | Blackgrass plant response rating (blackgrass; [15]) | Ryegrass, Italian plant response rating (Italian ryegrass; [6]) | Plant response rating, Ryegrass, Italian (Italian ryegrass; [11]) | Plant response rating, Wheat (wheat; [11]) | Cocklebur plant response rating (cocklebur; [6]) | Plant response rating, Cocklebur (cocklebur; [11]) | Plant response rating (0 to 100), Cocklebur (cocklebur; Preemergence, 250 g ai/ha) | Cocklebur plant response rating (cocklebur; [15]) | Plant response rating, Corn (corn; [11]) | Plant response rating, Kochia (kochia; [11]) | Plant response rating, Morningglory (morningglory [2]; [11]) | Plant response rating, Nutsedge, Yellow (yellow nutsedge; [11]) | Plant response rating, Soybean (soybean; [11]) | Sunflower plant response rating [3, 6] | Plant response rating, Sunflower ([3]; Preemergence) | Plant response rating, Sedge, Umbrella (umbrella sedge; 31 g ai/ha, scale 0 to 100 (0 no effect, 100 complete control))
85: Plant response rating, Sedge, Umbrella (umbrella sedge; [13])
10: Morningglory plant response rating (morningglory [1]; [14])
